According to paper PMC12454871, “Embedding a feruloyl esterase active site into a thermophilic endoxylanase scaffold for the degradation of feruloylated xylans” (Computational and Structural Biotechnology Journal, 2025):

Experiments:
[1] = molecular target: T1, Xyn11 (Pseudothermotoga thermarum, UniProt F7YXD6, L292S/K296H, form not given); assay: phenol red pH-indicator esterase assay, absorbance […] nm; format: biochemical; conditions: pH 8.0, 90 °C, 5 mM EPPS, 50 mM NaCl; engineered Ser271-His275-Glu272 esterase site
T1 construct: gene Theth_1636; GH10 single-domain TIM barrel, 342 residues; all rows are the designed double mutant Xyn11m1

[2] = molecular target: T1, Xyn11; assay: X-ray crystallography, […] Å; format: binding; conditions: native xylanase active site (E144/E251); trapped expression inducer

T1 sequence (F7YXD6 entry or part of it L292S/K296H, form open): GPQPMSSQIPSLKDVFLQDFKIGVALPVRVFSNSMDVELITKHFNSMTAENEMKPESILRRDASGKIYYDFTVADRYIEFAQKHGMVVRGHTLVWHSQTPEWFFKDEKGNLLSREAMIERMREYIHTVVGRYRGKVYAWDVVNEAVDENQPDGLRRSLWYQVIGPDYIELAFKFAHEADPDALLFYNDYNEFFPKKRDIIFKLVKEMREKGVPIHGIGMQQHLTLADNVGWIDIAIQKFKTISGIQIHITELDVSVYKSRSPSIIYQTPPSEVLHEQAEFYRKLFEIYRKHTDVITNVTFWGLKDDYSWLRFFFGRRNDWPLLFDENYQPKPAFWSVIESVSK

SMILES | Km [1] | X-ray crystallography, 2.1 Å [2]
COC(=O)/C=C/c1ccc(O)c(OC)c1 [methyl ferulate] | 2900 ± 200 µM | 
CC(C)S[C@@H]1O[C@H](CO)[C@H](O)[C@H](O)[C@H]1O [IPTG] |  | E144 and E251 and includes a trapped IPTG molecule
